From the supplement of paper PMC10307832

Compound: COC1=CC=C(C=C1)COC2=C(C=C(C=C2)CC3=CN=C(N=C3N)N)OC [GW-2580] + CC(=O)c1c(C)c2cnc(Nc3ccc(N4CCNCC4)cn3)nc2n(C2CCCC2)c1=O [Palbociclib] (partner 0.5 µM)
Assay: relative viability (nuclei count vs DMSO), 5 days (fraction); higher = more cells survive
Details: first compound 0.8 µM
Procedure, shortened: (§1)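 Relative viability equals treated-well nuclei counts divided by vehicle-well nuclei counts. Counts came from 4× images of lung cancer cell lines grown in 1536-well plates for 5 days after pin-tool dosing on the day after seeding. Dosing used one drug alone or a fixed anchor-drug dose plus five library-drug doses (not always all listed) in √10 steps, and values are medians of duplicate plates.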

Row | Cell Line | relative viability
1 | NCI-H1755 | 0.422
2 | NCI-H2023 | 0.477
3 | HCC-15 | 0.814
4 | NCI-H1793 | 0.345
5 | PC-14 | 0.614
6 | EKVX | 0.392
7 | LC-2-ad | 0.549
8 | NCI-H1944 | 0.387
9 | NCI-H1975 | 0.944
10 | RERF-LC-KJ | 1.24
11 | ABC-1 | 0.768
12 | NCI-H358 | 0.147
13 | NCI-H650 | 0.373
14 | PC-3 [JPC-3] | 0.567

Same assay, conditions: first compound 2.53 µM

Row | Cell Line | relative viability
15 | LXF-289 | 0.599
16 | NCI-H23 | 0.469
17 | NCI-H647 | 0.41
18 | CAL-12T | 0.517
19 | NCI-H1651 | 0.499
20 | NCI-H2228 | 0.822
21 | NCI-H1355 | 0.337
22 | NCI-H3122 | 0.189
23 | NCI-H1437 | 0.297
24 | NCI-H1755 | 0.455
25 | NCI-H2023 | 0.368
26 | HCC-15 | 0.706
27 | NCI-H1793 | 0.28
28 | PC-14 | 0.607
29 | EKVX | 0.675
30 | LC-2-ad | 0.491
31 | NCI-H1944 | 0.29
32 | NCI-H1975 | 0.524
33 | RERF-LC-KJ | 0.988
34 | ABC-1 | 0.503
35 | NCI-H358 | 0.139
36 | NCI-H650 | 0.28
37 | PC-3 [JPC-3] | 0.515

Same assay, conditions: first compound 8 µM

Row | Cell Line | relative viability
38 | LXF-289 | 0.602
39 | NCI-H23 | 0.545
40 | NCI-H647 | 0.317
41 | CAL-12T | 0.413
42 | NCI-H1651 | 0.557
43 | EPLC-272H | 0.313
44 | NCI-H2228 | 0.843
45 | NCI-H1792 | 0.678
46 | NCI-H1355 | 0.322
47 | NCI-H3122 | 0.195
48 | NCI-H1437 | 0.262
49 | NCI-H1755 | 0.41
50 | NCI-H2023 | 0.31
51 | HCC-15 | 0.56
52 | NCI-H1793 | 0.273
53 | PC-14 | 0.473
54 | EKVX | 0.327
55 | LC-2-ad | 0.45
56 | NCI-H1944 | 0.255
57 | NCI-H1975 | 0.586
58 | RERF-LC-KJ | 1.07
59 | ABC-1 | 0.696
60 | NCI-H358 | 0.15
61 | NCI-H650 | 0.317
62 | PC-3 [JPC-3] | 0.516

Compound: Cc1cnc(Nc2ccc(OCCN3CCCC3)cc2)nc1Nc1cccc(S(=O)(=O)NC(C)(C)C)c1 [Fedratinib] + N=C(N)NC(=N)NCCc1ccccc1 [Phenformin] (partner 250 µM)
Assay: as above
Details: first compound 0.1 µM
Procedure, shortened: as §1

Row | Cell Line | relative viability
63 | LXF-289 | 0.503
64 | NCI-H23 | 0.772
65 | NCI-H647 | 0.475
66 | CAL-12T | 0.597
67 | NCI-H1651 | 0.287
68 | EPLC-272H | 0.3
69 | NCI-H2228 | 0.226
70 | NCI-H1355 | 0.379
71 | NCI-H3122 | 0.292
72 | NCI-H1437 | 0.318
73 | NCI-H1755 | 0.561
74 | NCI-H2023 | 0.431
75 | HCC-15 | 0.43
76 | NCI-H1793 | 0.27
77 | PC-14 | 0.427
78 | EKVX | 0.251
79 | LC-2-ad | 0.595
80 | NCI-H1944 | 0.194
81 | NCI-H1975 | 0.416
82 | RERF-LC-KJ | 0.384
83 | ABC-1 | 0.265
84 | NCI-H358 | 0.304
85 | NCI-H650 | 0.431
86 | PC-3 [JPC-3] | 0.508

Same assay, conditions: first compound 0.3162 µM

Row | Cell Line | relative viability
87 | LXF-289 | 0.488
88 | NCI-H23 | 0.81
89 | NCI-H647 | 0.473
90 | CAL-12T | 0.611
91 | NCI-H1651 | 0.318
92 | EPLC-272H | 0.32
93 | NCI-H2228 | 0.252
94 | NCI-H1792 | 0.77
95 | NCI-H1355 | 0.467
96 | NCI-H3122 | 0.407
97 | NCI-H1437 | 0.346
98 | NCI-H1755 | 0.593
99 | NCI-H2023 | 0.463
100 | HCC-15 | 0.464
101 | NCI-H1793 | 0.178
102 | PC-14 | 0.676
103 | EKVX | 0.265
104 | LC-2-ad | 0.624
105 | NCI-H1944 | 0.228
106 | NCI-H1975 | 0.407
107 | RERF-LC-KJ | 0.433
108 | ABC-1 | 0.23
109 | NCI-H358 | 0.323
110 | NCI-H650 | 0.441
111 | PC-3 [JPC-3] | 0.466

Same assay, conditions: first compound 1 µM

Row | Cell Line | relative viability
112 | LXF-289 | 0.517
113 | NCI-H23 | 0.716
114 | NCI-H647 | 0.309
115 | CAL-12T | 0.526
116 | NCI-H1651 | 0.247
117 | EPLC-272H | 0.173
118 | NCI-H2228 | 0.358
119 | NCI-H1792 | 0.338
120 | NCI-H1355 | 0.327
121 | NCI-H3122 | 0.339
122 | NCI-H1437 | 0.349
123 | NCI-H1755 | 0.518
124 | NCI-H2023 | 0.456
125 | HCC-15 | 0.399
126 | NCI-H1793 | 0.312
127 | PC-14 | 0.386
128 | EKVX | 0.246
129 | LC-2-ad | 0.528
130 | NCI-H1944 | 0.213
131 | NCI-H1975 | 0.37
132 | RERF-LC-KJ | 0.373
133 | ABC-1 | 0.209
134 | NCI-H358 | 0.252
135 | NCI-H650 | 0.426
136 | PC-3 [JPC-3] | 0.482

Compound: COC1=CC=C(C=C1)COC2=C(C=C(C=C2)CC3=CN=C(N=C3N)N)OC [GW-2580] + COc1cccc2cc(-c3nc([C@H]4CC[C@H](C(=O)O)CC4)n4ncnc(N)c34)[nH]c12 [OSI-027] (partner 0.5 µM)
Assay: as above
Details: first compound 0.08 µM
Procedure, shortened: as §1

Row | Cell Line | relative viability
137 | LXF-289 | 0.999
138 | NCI-H23 | 0.561
139 | NCI-H647 | 0.68
140 | CAL-12T | 0.609
141 | NCI-H1651 | 0.804
142 | EPLC-272H | 0.284
143 | NCI-H2228 | 0.569
144 | NCI-H1792 | 0.763
145 | NCI-H1355 | 0.378
146 | NCI-H3122 | 1.28
147 | NCI-H1437 | 0.943
148 | NCI-H1755 | 0.757
149 | NCI-H2023 | 0.512
150 | HCC-15 | 0.743
151 | NCI-H1793 | 0.365
152 | PC-14 | 1
153 | EKVX | 0.692
154 | LC-2-ad | 0.88
155 | NCI-H1944 | 0.463
156 | NCI-H1975 | 0.952
157 | RERF-LC-KJ | 0.584
158 | ABC-1 | 0.471
159 | NCI-H358 | 0.944
160 | NCI-H650 | 0.55
161 | PC-3 [JPC-3] | 0.75

Same assay, conditions: first compound 0.8 µM

Row | Cell Line | relative viability
162 | LXF-289 | 0.859
163 | NCI-H23 | 0.644
164 | NCI-H647 | 0.612
165 | CAL-12T | 0.853
166 | NCI-H1651 | 0.753
167 | EPLC-272H | 0.308
168 | NCI-H2228 | 0.6
169 | NCI-H1792 | 1.14
170 | NCI-H1355 | 0.466
171 | NCI-H3122 | 1.24
172 | NCI-H1437 | 0.864
173 | NCI-H1755 | 0.676
174 | NCI-H2023 | 0.459
175 | HCC-15 | 0.787
176 | NCI-H1793 | 0.323
177 | PC-14 | 1.08
178 | EKVX | 0.755
179 | LC-2-ad | 0.867
180 | NCI-H1944 | 0.46
181 | NCI-H1975 | 0.829
182 | RERF-LC-KJ | 0.606
183 | ABC-1 | 0.533
184 | NCI-H358 | 0.817
185 | NCI-H650 | 0.585
186 | PC-3 [JPC-3] | 0.985

Same assay, conditions: first compound 2.53 µM

Row | Cell Line | relative viability
187 | LXF-289 | 0.857
188 | NCI-H23 | 0.599
189 | NCI-H647 | 0.646
190 | CAL-12T | 0.526
191 | NCI-H1651 | 0.748
192 | NCI-H2228 | 0.639
193 | NCI-H1355 | 0.37
194 | NCI-H3122 | 1.19
195 | NCI-H1437 | 0.889
196 | NCI-H1755 | 0.686
197 | NCI-H2023 | 0.39
198 | HCC-15 | 0.596
199 | NCI-H1793 | 0.306
200 | PC-14 | 0.671
201 | EKVX | 0.73
202 | LC-2-ad | 0.87
203 | NCI-H1944 | 0.439
204 | NCI-H1975 | 0.709
205 | RERF-LC-KJ | 0.501
206 | ABC-1 | 0.502
207 | NCI-H358 | 0.667
208 | NCI-H650 | 0.465
209 | PC-3 [JPC-3] | 0.721

Same assay, conditions: first compound 8 µM

Row | Cell Line | relative viability
210 | LXF-289 | 0.731
211 | NCI-H23 | 0.347
212 | NCI-H647 | 0.745
213 | CAL-12T | 0.699
214 | NCI-H1651 | 0.896
215 | EPLC-272H | 0.273
216 | NCI-H2228 | 0.545
217 | NCI-H1792 | 0.883
218 | NCI-H1355 | 0.35
219 | NCI-H3122 | 0.895
220 | NCI-H1437 | 0.85
221 | NCI-H1755 | 0.703
222 | NCI-H2023 | 0.393
223 | HCC-15 | 0.656
224 | NCI-H1793 | 0.254
225 | PC-14 | 0.817
226 | EKVX | 0.67
227 | LC-2-ad | 0.78
228 | NCI-H1944 | 0.365
229 | NCI-H1975 | 0.58
230 | RERF-LC-KJ | 0.484
231 | ABC-1 | 0.53
232 | NCI-H358 | 0.742
233 | NCI-H650 | 0.518
234 | PC-3 [JPC-3] | 0.724
